Values quoted from earlier work as cited in patent publication US5480649A, “Procaterol-containing preparation for application to the skin” (Teikoku Seiaku Kabushiki Kaisha, priority 1990, dated 1996).

Test system: β-receptor of sympathetic nerves
Details: background statement

CCC(NC(C)C)C(O)c1ccc(O)c2[nH]c(=O)ccc12 (centres unmarked) [procaterol]
bronchodilating activity: strong bronchodilating activity in very small amounts | duration of the activity: ≥ 8 h
